Three compounds from patent US4470986A, “Certain imidazo (1,5-A) pyridine aliphatic carboxylic acid derivatives and their use as selective thromboxane inhibitors” (Ciba-Geigy Corporation, priority 1982, dated 1984) can be followed below.

In assay [1] the target is T1, thromboxane synthetase (Homo sapiens, UniProt P24557).
T1 construct: crude microsomal preparation of thromboxane synthetase from lysed human platelets; from tissue; host or cells: lysed human platelets, crude microsomal preparation
T1 sequence (P24557 1-533): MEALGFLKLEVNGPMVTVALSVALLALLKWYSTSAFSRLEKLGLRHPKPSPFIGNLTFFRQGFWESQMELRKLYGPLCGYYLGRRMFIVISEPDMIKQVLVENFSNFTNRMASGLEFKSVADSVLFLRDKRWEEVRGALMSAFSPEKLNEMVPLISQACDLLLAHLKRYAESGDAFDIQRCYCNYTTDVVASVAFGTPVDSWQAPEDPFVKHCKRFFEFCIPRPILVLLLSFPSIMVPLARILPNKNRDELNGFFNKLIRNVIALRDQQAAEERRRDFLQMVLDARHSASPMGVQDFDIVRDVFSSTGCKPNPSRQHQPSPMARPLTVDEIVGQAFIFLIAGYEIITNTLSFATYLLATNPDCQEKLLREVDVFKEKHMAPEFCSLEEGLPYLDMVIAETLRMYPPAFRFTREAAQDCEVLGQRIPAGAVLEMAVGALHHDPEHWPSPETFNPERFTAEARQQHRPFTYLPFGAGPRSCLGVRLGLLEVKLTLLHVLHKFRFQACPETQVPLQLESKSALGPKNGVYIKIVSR
The assay is described as follows: in vitro inhibition of thromboxane synthetase (TxB2/PGF2 α+β ratio from 14C-arachidonic acid). It is filed as biochemical. Conditions: 30 minutes incubation. As to the method: Res. Comm. 74, 1432 (1977); the testing procedure is as follows:
^14 C-Arachidonic acid is incubated with an enzyme preparation consisting of solubilized and partially purified prostaglandin cyclo-oxygenase from sheep seminal vesicles and a crude microsomal preparation of thromboxane synthetase from lysed human platelets. The test compound (dissolved in buffer, or if necessary, in a small amount of ethanol) is added to the incubation medium. At the end of the incubation period (30 minutes), Prostaglandin E2 (PGE2) is reduced to a mixture of Prostaglandin F2 α and F2 β [PGF2 (α+β)] by addition of sodium borohydride. The radioactive products and excess substrate are extracted into ethyl acetate; the extract is evaporated to dryness; the residue is dissolved in acetone, spotted on thin-layer plates and chromatographed in the solvent system toluene: acetone: glacial acetic acid (100 volumes: 100 volumes: 3 volumes). The radioactive zones are located; those corresponding to Thromboxane B2 (TxB2) and PGF2 α+β are transferred to liquid scintillation vials and counted. The ratio of counts for TxB2 /PGF2 α+β is calculated for each concentration of test compound and IC50 values are determined graphically as the concentration of test compound at which the ratio of TxB2 /PGF2 α+β is reduced to 50% of the control value.

In assay [2] the test system is 6-keto-PGF1 α. The assay is described as follows: in vivo plasma level of 6-keto-PGF1 α (prostacyclin metabolite) in rats after ionophore A23187. As to conditions: rat; ionophore A23187 0.5 mg/kg i.v. two hours after dosing. As to the method: (§1) The inhibition of the synthesis and the reduction of plasma levels of thromboxane is determined in vivo or administration to rats in the following manner (as adapted from the procedures described by Tai et al. in Anal. Biochem. 87:343, 1978 and by Salmon in Prostaglandins 15:383, 1978):
(§2) Rats are dosed with vehicle or test drug and injected intravenously with ionophore A23187 (0.5 mg/kg) two hours later. Blood is collected for analysis 2 minutes after the ionophore injection. A single aliquot of each plasma sample is assayed for thromboxane B2 and another aliquot for 6-keto-PGF1 α (the stable metabolite of prostacyclin, by radioimmunoassay.

For assay [3], the system named is thromboxane B2. Description: in vivo reduction of plasma thromboxane B2 in rats after ionophore A23187. Conditions: rat, oral dose of 5 mg/Kg or lower; ionophore A23187 0.5 mg/kg i.v. two hours after dosing. On the procedure:
as §1, §2

By IC50 is commonly meant the concentration at which inhibition is half-maximal. As to `c1cc(CCCCc2nnn[nH]2)n2cncc2c1` [5-[4-(5-tetrazolyl)butyl]-imidazo[1,5-a]pyridine], the IC50 in assay [1] is around 0.01 µM. Further, in assay [2], the “increase in the plasma level of the prostacyclin metabolite 6-keto-PGF1 α” value is on record as “significant increase”. The “reduction of the plasma concentration of thromboxane B2” value in assay [3] was “over 50%”.

For `O=C(CCCCCc1cccc2cncn12)NO` [5-[5-(hydroxycarbamoyl)pentyl]-imidazo[1,5-a]-pyridine], the IC50 in assay [1] was around 0.3 µM. Turning to `O=C(O)CCCCCc1c(OCc2ccccc2)ccc2cncn12` [6-benzyloxy-5-(5-carboxypentyl)imidazo[1,5-a]pyridine], in assay [1], the IC50 is around 0.003 µM.
